# Experiments:
# [1] = system: duck salad; test: Test B flood test duck salad; type: in vivo, Heteranthera limosa; conditions: for Ducksalad plant response rating (0 to 10 scale, 0 is no effect, 10 is complete control): Rate 125 g/ha, under heading Pre-emergence
# Outline: (§1)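 Read-out is a visual response score from 0 (no effect) to 10 (complete control), assigned by comparison with untreated controls. Treatment was applied at the 2-leaf stage, and plants stayed in the greenhouse for twelve to sixteen days before scoring.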
# [2] = system: bamyardgrass; test: Test B flood test barnyardgrass; type: in vivo, Echinochloa crus-galli; conditions: for Barnyardgrass plant response rating (0 to 10 scale, 0 is no effect, 10 is complete control): Rate 125 g/ha, under heading Pre-emergence
# Outline: as §1
# [3] = system: bedstraw; test: Test B pre/postemergence bedstraw; type: in vivo, Galium aparine
# Outline: (§2)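 Response is a visual 0-to-10 score relative to untreated plants, where 0 means no effect and 10 means complete control, taken twelve to sixteen days after application. Treatments went onto soil at planting and onto foliage of 1- to 4-leaf plants, using a surfactant-containing non-phytotoxic solvent.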
# [4] = system: purple nutsedge; test: Test B pre/postemergence purple nutsedge; type: in vivo, Cyperus rotundus
# Outline: as §2
# [5] = Rate 62 g/ha, flood test species, Pre-emergence, visual evaluation after twelve to sixteen days
# [6] = flood test species, visual evaluation after twelve to sixteen days
# [7] = Rate 250 g/ha, Pre-emergence (flood test species), scale 0 to 10, 0 is no effect, 10 is complete control
# [8] = Rate 500 g/ha, Pre-emergence, flood test species, scale 0 to 10 (0 no effect, 10 complete control)
# [9] = Preemergence, Rate 125 g/ha, scale of 0 to 10 where 0 is no effect and 10 is complete control
# [10] = Preemergence, Rate 250 g/ha, scale 0 to 10, 0 is no effect, 10 is complete control
# [11] = Rate 62 g/ha, Postemergence, scale 0 to 10 (0 no effect, 10 complete control)
# [12] = Rate 125 g/ha, Postemergence, scale 0 to 10, 0 is no effect, 10 is complete control
# [13] = Pre-emergence, Rate 1000 g/ha, scale 0 to 10 (0 no effect, 10 complete control)
# [14] = Rate 500 g/ha, Pre-emergence section of Table B, 0 to 10 scale (0 no effect, 10 complete control)
# [15] = Preemergence, Rate 250 g/ha, scale 0 to 10 (0 no effect, 10 complete control)
# [16] = Preemergence, Rate 500 g/ha, scale of 0 to 10 where 0 is no effect and 10 is complete control
# [17] = Rate 1000 g/ha, Preemergence, scale 0 to 10 (0 no effect, 10 complete control)
smiles,measurement,setting,value
CC(C)N(C(=O)n1oc(=O)n(C(C)C(=O)N(C)C)c1=O)c1ccc(F)cc1 (centres unmarked) [Compound 478],"Plant response rating, Ducksalad (0 to 10 scale, 0 is no effect, 10 is complete control)",[1]; [5],0
same,"Ducksalad plant response rating (0 to 10 scale, 0 is no effect, 10 is complete control)",[1]; [6],0
same,Ducksalad plant response rating,[1]; [7],0
same,Ducksalad plant response rating,[1]; [8],0
same,"Plant response rating, Barnyardgrass (0 to 10 scale, 0 is no effect, 10 is complete control)",[2]; [5],0
same,"Barnyardgrass plant response rating (0 to 10 scale, 0 is no effect, 10 is complete control)",[2]; [6],0
same,Barnyardgrass plant response rating,[2]; [7],0
same,Barnyardgrass plant response rating,[2]; [8],0
same,"Plant response rating, Bedstraw",[3]; [9],8
same,Bedstraw plant response rating,[3]; [10],8
same,Bedstraw plant response rating,[3]; [11],0
same,Bedstraw plant response rating,[3]; [12],0
same,Nutsedge plant response rating,"[4]; Postemergence, Rate 250 g/ha, scale 0 to 10",0
same,"Plant response rating, Nutsedge","[4]; Preemergence, Rate 62 g/ha, scale of 0 to 10 where 0 is no effect and 10 is complete control",0
same,"Plant response rating, Nutsedge",[4]; [9],0
same,Nutsedge plant response rating,[4]; [10],0
same,Nutsedge plant response rating,"[4]; Preemergence, Rate 500 g/ha, scale 0 to 10, 0 is no effect, 10 is complete control",3
same,Nutsedge plant response rating,[4]; [11],0
same,Nutsedge plant response rating,[4]; [12],0
CCOP(=O)(OCC)C(C)n1c(=O)on(C(=O)N(c2ccc(F)cc2)C(C)C)c1=O (centres unmarked) [Compound 617],Ducksalad plant response rating,[1]; [13],0
same,"Ducksalad plant response rating (0 to 10 scale, 0 is no effect, 10 is complete control)",[1]; [6],0
same,Ducksalad plant response rating,[1]; [7],0
same,Ducksalad plant response rating,[1]; [14],0
same,Barnyardgrass plant response rating,[2]; [13],0
same,"Barnyardgrass plant response rating (0 to 10 scale, 0 is no effect, 10 is complete control)",[2]; [6],0
same,Barnyardgrass plant response rating,[2]; [7],0
same,Barnyardgrass plant response rating,[2]; [14],0
same,Bedstraw plant response rating,[3]; [9],0
same,"Plant response rating, Bedstraw",[3]; [15],0
same,Bedstraw plant response rating,[3]; [16],0
same,"Plant response rating, Bedstraw",[3]; [17],0
same,"Plant response rating, Nutsedge","[4]; Postemergence, Rate 125 g/ha, scale of 0 to 10 where 0 is no effect and 10 is complete control",0
same,"Plant response rating, Nutsedge","[4]; Postemergence, Rate 500 g/ha, scale of 0 to 10 where 0 is no effect and 10 is complete control",0
same,Nutsedge plant response rating,"[4]; Postemergence, Rate 1000 g/ha, scale 0 to 10 (0 no effect, 10 complete control)",0
same,Nutsedge plant response rating,[4]; [9],0
same,"Plant response rating, Nutsedge",[4]; [15],0
same,"Plant response rating, Nutsedge",[4]; [16],5
same,"Plant response rating, Nutsedge",[4]; [17],8
